The target in this test is T1, ETA Receptor (Rattus norvegicus, UniProt P26684).
T1 construct: endogenous in cells; host or cells: MMQ rat pituitary cells (membranes)
T1 sequence (P26684 21-426): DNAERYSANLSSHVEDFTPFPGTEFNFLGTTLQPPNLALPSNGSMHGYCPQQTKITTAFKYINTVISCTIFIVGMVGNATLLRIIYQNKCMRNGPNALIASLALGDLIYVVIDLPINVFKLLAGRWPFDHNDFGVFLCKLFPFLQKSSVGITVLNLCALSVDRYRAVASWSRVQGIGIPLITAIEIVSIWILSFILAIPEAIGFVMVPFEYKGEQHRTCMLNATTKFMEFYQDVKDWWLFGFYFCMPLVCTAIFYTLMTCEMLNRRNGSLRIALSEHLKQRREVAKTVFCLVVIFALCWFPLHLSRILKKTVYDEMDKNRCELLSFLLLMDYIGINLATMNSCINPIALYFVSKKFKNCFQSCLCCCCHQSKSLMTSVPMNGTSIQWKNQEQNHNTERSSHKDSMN
Nature of the test: [125I]ET-1 binding to membranes from MMQ cells (ETA receptor binding assay, Table 4). Particulars: test compound at 1 μM; 0.1 nM [125I]ET-1, MMQ cell membranes, 4 hours at 25° C.

As to `COc1ccc(C2C(C(=O)O)C(c3ccc4c(c3)OCO4)CN2CCN(C)C(=O)C(C)C)cc1` (stereo not drawn) [Example 61C, trans,trans-2-(4-Methoxyphenyl)-4-(1,3-benzodioxol-5-yl)-1-(2-(N-methyl-N-isobutyrylamino)ethyl)-pyrrolidine-3-carboxylic acid], the “% Inhibition of ETA at 1 μM” value is on record as 90.6%.

As to `CCN(CC)C(=O)CN1CC(c2ccc3c(c2)OCO3)C(C(=O)O)C1c1ccc(OC)cc1` (stereo not drawn) [Example 44, trans,trans-2-(4-Methoxyphenyl)-4-(1,3-benzodioxol-5-yl)-1-(N,N-diethylaminocarbonylmethyl)-pyrrolidine-3-carboxylic acid], the “% Inhibition of ETA at 1 μM” value amounted to 91.3%.

Regarding `CCCCN(CCCC)C(=O)CN1CC(c2ccc3c(c2)OCO3)C(C(=O)O)C1c1ccccc1` (stereo not drawn) [Example 152, trans,trans-1-(N,N-Di(n-butyl)aminocarbonylmethyl)-2-phenyl-4-(1,3-benzodioxol-5-yl)pyrrolidine-3-carboxylic acid], the “% Inhibition of ETA at 1 μM” value came out at 86.9%.

In the case of `CCCCN(CCCC)C(=O)CN1CC(c2ccc3c(c2)OCO3)C(C(=O)O)C1c1ccc(CC)cc1` (stereo not drawn) [Example 307, trans—trans-2-(4-Ethylphenyl)-4-(1,3-benzodioxol-5-yl)-1-[N,N-di(n-butyl)aminocarbonylmethyl]-pyrrolidine-3-carboxylic acid], the “% Inhibition of ETA at 1 μM” value came to 92.2%.

As for `CCCCN(CCCC)C(=O)CN1CC(c2ccc3c(c2)CCO3)C(C(=O)O)C1c1ccc2c(c1)CCO2` (stereo not drawn) [Example 162B, trans,trans-1-(N,N-Di(n-butyl)aminocarbonylmethyl)-2,4-di(5-benzo-2,3-dihydrofuranyl)pyrrolidine-3-carboxylic acid], the “% Inhibition of ETA at 1 μM” value turned out to be 91.5%.

Take `CCCCN(CCCC)C(=O)CN1CC(c2cccc3occc23)C(C(=O)O)C1c1ccc(OC)cc1` (stereo not drawn) [Example 138, trans,trans-1-(N,N-Di(n-butyl)aminocarbonylmethyl)-2-(4-methoxyphenyl)-4-(4-benzofuranyl)pyrrolidine-3-carboxylic acid]: the “% Inhibition of ETA at 1 μM” value was found to be 83.0%.

Turning to `CCCCCS(=O)(=O)N(CCC)CCN1CC(c2ccc3c(c2)OCO3)C(C(=O)O)C1c1ccc(OC)cc1` (stereo not drawn) [Example 299, trans,trans-2-(4-Methoxyphenyl)-4-(1,3-benzodioxol-5-yl)-1-(2-(N-propyl-N-n-pentanesulfonylamino)ethyl)-pyrrolidine-3-carboxylic acid], the “% Inhibition of ETA at 1 μM” value is reported as 90.4%.

`CCCN(CCN1CC(c2ccc3c(c2)OCO3)C(C(=O)O)C1c1ccc(OC)cc1)S(=O)(=O)c1ccc(F)cc1` (stereo not drawn) [Example 134, trans,trans-1-(2-(N-Propyl-N-(4-fluorobenzenesulfonyl)amino)ethyl)-2-(4-methoxyphenyl)-4-(1,3-benzodioxol-5-yl)pyrrolidine-3-carboxylic acid]: the “% Inhibition of ETA at 1 μM” value stood at 92.2%.

As for `CCCCCCCS(=O)(=O)N(CCC)CCN1CC(c2ccc3c(c2)OCO3)C(C(=O)O)C1c1ccc(OC)cc1` (stereo not drawn) [Example 304, trans,trans-2-(4-Methoxyphenyl)-4-(1,3-benzodioxol-5-yl)-1-(2-(N-propyl-N-heptanesulfonylamino)ethyl)-pyrrolidine-3-carboxylic acid], the “% Inhibition of ETA at 1 μM” value is 89.7%.

As to `CCCCCS(=O)(=O)N(CC)CCN1CC(c2ccc3c(c2)OCO3)C(C(=O)O)C1c1ccc(OC)cc1` (stereo not drawn) [Example 310, trans,trans-2-(4-Methoxyphenyl)-4-(1,3-benzodioxol-5-yl)-1-(2-(N-ethyl-N-n-pentanesulfonylamino)ethyl)-pyrrolidine-3-carboxylic acid], the “% Inhibition of ETA at 1 μM” value is 87.1%.

`CCCCN(CCCC)C(=O)CN1CC(c2ccc3c(c2)OCO3)C(C(=O)O)C1c1cccnc1` (stereo not drawn) [Example 130, trans,trans-1-(N,N-Di(n-butyl)aminocarbonylmethyl)-2-(3-pyridyl)-4-(1,3-benzodioxol-5-yl)pyrrolidine-3-carboxylic acid]: the “% Inhibition of ETA at 1 μM” value amounted to 91.0%.

On to `CCCN(C)C(=O)CN1CC(c2ccc3cc[nH]c3c2)C(C(=O)O)C1c1ccc(OC)cc1` (stereo not drawn) [Example 143, trans,trans-1-(N-Methyl-N-propylaminocarbonylmethyl)-2-(4-methoxyphenyl)-4-(6-indolyl)pyrrolidine-3-carboxylic acid], for which the “% Inhibition of ETA at 1 μM” value was determined as 20.6%.

Turning to `CCCN(CCN1C[C@H](c2ccc3c(c2)OCO3)[C@@H](C(=O)O)[C@@H]1c1ccc(OC)cc1)S(=O)(=O)CC(C)C` (relative stereo) [Example 303, trans,trans-2-(4-Methoxyphenyl)-4-(1,3-benzodioxol-5-yl)-1-(2-(N-propyl-N-(2-methylpropanesulfonyl)amino)ethyl)-pyrrolidine-3-carboxylic acid], the “% Inhibition of ETA at 1 μM” value was 87.2%.

Take `CCCCN(CCCC)C(=O)CN1CC(c2ccc3c(c2)OCO3)C(C(=O)O)C1C1CCC(OC)CC1` (stereo not drawn) [Example 160B, trans,trans-1-(N,N-Di(n-butyl)aminocarbonylmethyl)-2-(anti-4-methoxycyclohexyl)-4-(1,3-benzodioxol-5-yl)pyrrolidine-3-carboxylic acid]: the “% Inhibition of ETA at 1 μM” value was 80.3%.

Take `COCCOCCN1CC(c2ccc3c(c2)OCO3)C(C(=O)O)C1c1ccc(OC)cc1` (stereo not drawn) [Example 6B, trans,trans-2-(4-Methoxyphenyl)-4-(1,3-benzodioxol-5-yl)-1-[2-(2-methoxyethoxy)ethyl]-pyrrolidine-3-carboxylic acid]: the “% Inhibition of ETA at 1 μM” value turned out to be 34.9%.

With `CCCCNC(=O)N1CC(c2ccc3c(c2)OCO3)C(C(=O)O)C1c1ccc(OC)cc1` (stereo not drawn) [Example 9, trans,trans-2-(4-Methoxyphenyl)-4-(1,3-benzodioxole-5-yl)-1-(butylaminocarbonyl)-pyrrolidine-3-carboxylic acid], the “% Inhibition of ETA at 1 μM” value was 69.2%.

`CCCCC(=O)CN1CC(c2ccc3c(c2)OCO3)C(C(=O)O)C1c1ccc(OC)cc1` (stereo not drawn) [Example 72C, trans,trans-2-(4-Methoxyphenyl)-4-(1,3-benzodioxol-5-yl)-1-(valerylmethyl)-pyrrolidine-3-carboxylic acid]: the “% Inhibition of ETA at 1 μM” value stood at 80.7%.

On to `CCCN(C)C(=O)CN1CC(c2ccc(OC)c(OC)c2)C(C(=O)O)C1c1ccc(OC)cc1` (stereo not drawn) [Example 54, trans,trans-2-(4-Methoxyphenyl)-4-(3,4-dimethoxyphenyl)-1-(N-methyl-N-propyl)aminocarbonylmethyl)-pyrrolidine-3-carboxylic acid], for which the “% Inhibition of ETA at 1 μM” value worked out at 64.6%.

With `COc1ccc(C2C(C(=O)O)C(c3ccc4c(c3)OCO4)CN2CCc2ccccn2)cc1` (stereo not drawn) [Example 7, trans,trans-2-(4-Methoxyphenyl)-4-(1,3-benzodioxol-5-yl)-1-[2-(2-pyridyl)ethyl]-pyrrolidine-3-carboxylic acid], the “% Inhibition of ETA at 1 μM” value was determined as 63.4%.

Turning to `CCCCN(CCCC)C(=O)CN1CC(c2ccc(OC)cc2OC)C(C(=O)O)C1c1ccc(OC)cc1` (stereo not drawn) [Example 151, trans,trans-1-(N,N-Di(n-butyl)aminocarbonylmethyl)-2-(4-methoxyphenyl)-4-(2,4-dimethoxyphenyl)pyrrolidine-3-carboxylic acid], the “% Inhibition of ETA at 1 μM” value amounted to 80.5%.

Turning to `CCCCN(CCCC)C(=O)CN1CC(c2ccc3c(c2)OCO3)C(C(=O)O)C1CCOC` (stereo not drawn) [Example 309, trans—trans-2-(2-Methoxyethyl)-4-(1,3-benzodioxol-5-yl)-1-[N,N-di(n-butyl)aminocarbonylmethyl]-pyrrolidine-3-carboxylic acid], the “% Inhibition of ETA at 1 μM” value came out at 80.7%.

(Values after US7208517B1, “Endothelin antagonists” (Abbott Labortories, priority 1994, dated 2007).)
